Reference: ChEMBL document CHEMBL1201862, “PubChem BioAssay data set” (2004)
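Five concentrations, 48 hours, 96-well plates. The concentration for 50% growth inhibition is given as GI50.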 Calls of active or inactive are those of the source. Rule as the data show it: active = GI50 up to about 1.1 µM and inactive = higher.

Assays:
Assay in all cases: inhibition of tumour cell growth, NCI panel, 48 h
HCT-15 = system: HCT-15
SF-268 = system: SF-268
SF-295 = system: SF-295
OVCAR-4 = system: OVCAR-4
A549 = system: A549
SNB-78 = system: SNB-78
SW-620 = system: SW-620
LOX IMVI = system: LOX IMVI
786-0 = system: 786-0
RPMI-8226 = system: RPMI-8226
MOLT-4 = system: MOLT-4
COLO 205 = system: COLO 205
HL-60 = system: HL-60
CAKI-1 = system: CAKI-1
Malme-3M = system: Malme-3M
UACC-257 = system: UACC-257
NCI-H226 = system: NCI-H226
RXF 393 = system: RXF 393

SMILES | GI50 (HCT-15) [µM] | GI50 (SF-268) | GI50 (SF-295) | GI50 (OVCAR-4) | GI50 (A549) | GI50 (SNB-78) | GI50 (SW-620) | GI50 (LOX IMVI) | GI50 (786-0) | GI50 (RPMI-8226) | GI50 (MOLT-4) | GI50 (COLO 205) | GI50 (HL-60) | GI50 (CAKI-1) | GI50 (Malme-3M) | GI50 (UACC-257) | GI50 (NCI-H226) | GI50 (RXF 393)
CC1OC(n2cc(F)c(=O)[nH]c2=O)C=CC1=O (stereo unspecified) | 20.3 | 19.6 µM (inactive) | 17.3 µM (inactive) | 18.1 µM (inactive) | > 100 µM (inactive) | 18.7 µM (inactive) | 18.8 µM (inactive) | 15 µM (inactive) | 15.9 µM (inactive) | 21 µM (inactive) | 24.2 µM (inactive) | 32.2 µM (inactive) | 17.9 µM (inactive) | 14.5 µM (inactive) | 18.7 µM (inactive) | 17.9 µM (inactive) | 24.7 µM (inactive) | 15.5 µM (inactive)
NC1=NC(c2ccccc2)CC(c2cc(Cl)ccc2O)=N1 (stereo unspecified) |  | 16 µM (inactive) | 17.3 µM (inactive) | 17.9 µM (inactive) | 14.3 µM (inactive) | 19.5 µM (inactive) | 14.1 µM (inactive) | 15.5 µM (inactive) | 16.1 µM (inactive) | 15.2 µM (inactive) | 14.2 µM (inactive) | 19.5 µM (inactive) | 16.1 µM (inactive) | 14.9 µM (inactive) | 21.8 µM (inactive) | 19.9 µM (inactive) | 21.2 µM (inactive) | 17.3 µM (inactive)
CC(N)Cc1ccc(F)cc1 (stereo unspecified) | > 100 | > 100 µM (inactive) | > 100 µM (inactive) | > 100 µM (inactive) | > 100 µM (inactive) | > 100 µM (inactive) | > 100 µM (inactive) | > 100 µM (inactive) | > 100 µM (inactive) | > 100 µM (inactive) | > 100 µM (inactive) | > 100 µM (inactive) | > 100 µM (inactive) | > 100 µM (inactive) | > 100 µM (inactive) | > 100 µM (inactive) | > 100 µM (inactive) | > 100 µM (inactive)
O=C1N=C2N=C(c3ccc(Cl)cc3)N(c3ccc(Cl)cc3)N2Sc2ccccc21 | > 100 | > 100 µM (inactive) | 64.6 µM (inactive) | > 100 µM (inactive) | 39.8 µM (inactive) | > 100 µM (inactive) | > 100 µM (inactive) | > 100 µM (inactive) | > 100 µM (inactive) | > 100 µM (inactive) | > 100 µM (inactive) | > 100 µM (inactive) | > 100 µM (inactive) | > 100 µM (inactive) | > 100 µM (inactive) | > 100 µM (inactive) | > 100 µM (inactive) | 32.8 µM (inactive)
